Measured values as given in ChEMBL document CHEMBL1201862, “PubChem BioAssay data set” (2004).
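Cells were grown in 96-well plates and exposed to each compound for 48 hours at five concentrations; endpoints were interpolated linearly between bracketing concentrations, or set to the highest concentration if not reached. GI50 = concentration required for 50% inhibition of growth.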 Calls of active or inactive are those of the source. Rule as the data show it: active = GI50 up to about 1.1 µM and inactive = higher.

Assays:
Experiment in all cases: inhibition of tumour cell growth, NCI panel, 48 h
786-0 = test system: 786-0
A498 = test system: A498
A549 = test system: A549
ACHN = test system: ACHN
BT-549 = test system: BT-549
CAKI-1 = test system: CAKI-1
CCRF-CEM = test system: CCRF-CEM
COLO 205 = test system: COLO 205
DU-145 = test system: DU-145
EKVX = test system: EKVX
HCC 2998 = test system: HCC 2998
HCT-116 = test system: HCT-116
HCT-15 = test system: HCT-15
HL-60 = test system: HL-60
HOP-92 = test system: HOP-92
Hs-578T = test system: Hs-578T
IGROV-1 = test system: IGROV-1
K562 = test system: K562
KM12 = test system: KM12
LOX IMVI = test system: LOX IMVI
M14 = test system: M14
MCF7 = test system: MCF7
MDA-MB-231 = test system: MDA-MB-231
MDA-MB-435 = test system: MDA-MB-435
MDA-N = test system: MDA-N
MOLT-4 = test system: MOLT-4
Malme-3M = test system: Malme-3M
NCI-H226 = test system: NCI-H226
NCI-H460 = test system: NCI-H460
NCI-H522 = test system: NCI-H522
NCI/ADR-RES = test system: NCI/ADR-RES
OVCAR-3 = test system: OVCAR-3
OVCAR-4 = test system: OVCAR-4
OVCAR-5 = test system: OVCAR-5
OVCAR-8 = test system: OVCAR-8
PC-3 = test system: PC-3
RPMI-8226 = test system: RPMI-8226
RXF 393 = test system: RXF 393
SF-268 = test system: SF-268
SF-295 = test system: SF-295
SF-539 = test system: SF-539
SK-MEL-28 = test system: SK-MEL-28
SK-MEL-2 = test system: SK-MEL-2
SK-MEL-5 = test system: SK-MEL-5
SN12C = test system: SN12C
SNB-19 = test system: SNB-19
SNB-75 = test system: SNB-75
SR = test system: SR
SW-620 = test system: SW-620
T47D = test system: T47D
TK-10 = test system: TK-10
U-251 = test system: U-251
UACC-257 = test system: UACC-257
UACC-62 = test system: UACC-62
UO-31 = test system: UO-31
HOP-62 = test system: HOP-62
HT-29 = test system: HT-29
NCI-H23 = test system: NCI-H23
SK-OV-3 = test system: SK-OV-3

Cc1c(C)c2c(c(N)c1C#N)C(=O)N(CCN1CCNCC1)C2=O
GI50 (786-0): 25.4 µM (inactive)
GI50 (A498): 22.2 µM (inactive)
GI50 (A549): 29.6 µM (inactive)
GI50 (ACHN): 25.6 µM (inactive)
GI50 (BT-549): 35.2 µM (inactive)
GI50 (CAKI-1): 42 µM (inactive)
GI50 (CCRF-CEM): 33.4 µM (inactive)
GI50 (COLO 205): 22.5 µM (inactive)
GI50 (DU-145): 29.4 µM (inactive)
GI50 (EKVX): 39 µM (inactive)
GI50 (HCC 2998): 31.6 µM (inactive)
GI50 (HCT-116): 16.1 µM (inactive)
GI50 (HCT-15): 35.6 µM
GI50 (HL-60): 28.4 µM (inactive)
GI50 (HOP-92): 25.2 µM (inactive)
GI50 (Hs-578T): 28.8 µM (inactive)
GI50 (IGROV-1): 34.7 µM (inactive)
GI50 (K562): 51.6 µM (inactive)
GI50 (KM12): 45.4 µM (inactive)
GI50 (LOX IMVI): 20.1 µM (inactive)
GI50 (M14): 33.8 µM (inactive)
GI50 (MCF7): 34.8 µM (inactive)
GI50 (MDA-MB-231): 19.3 µM (inactive)
GI50 (MDA-MB-435): 33.5 µM (inactive)
GI50 (MDA-N): 40.9 µM (inactive)
GI50 (MOLT-4): 30.5 µM (inactive)
GI50 (Malme-3M): 22.6 µM (inactive)
GI50 (NCI-H226): 29.1 µM (inactive)
GI50 (NCI-H460): 29.9 µM (inactive)
GI50 (NCI-H522): 17.9 µM (inactive)
GI50 (NCI/ADR-RES): 33.4 µM (inactive)
GI50 (OVCAR-3): 33.3 µM (inactive)
GI50 (OVCAR-4): 40.2 µM (inactive)
GI50 (OVCAR-5): 31.1 µM (inactive)
GI50 (OVCAR-8): 30.8 µM (inactive)
GI50 (PC-3): 18.4 µM (inactive)
GI50 (RPMI-8226): 38 µM (inactive)
GI50 (RXF 393): 22.4 µM (inactive)
GI50 (SF-268): 34.1 µM (inactive)
GI50 (SF-295): 31.5 µM (inactive)
GI50 (SF-539): 32.8 µM (inactive)
GI50 (SK-MEL-28): 38.3 µM (inactive)
GI50 (SK-MEL-2): 35.9 µM (inactive)
GI50 (SK-MEL-5): > 10 µM (inactive)
GI50 (SN12C): 32.5 µM (inactive)
GI50 (SNB-19): 49.3 µM (inactive)
GI50 (SNB-75): 26.2 µM (inactive)
GI50 (SR): 25.6 µM (inactive)
GI50 (SW-620): 31.6 µM (inactive)
GI50 (T47D): 36.4 µM (inactive)
GI50 (TK-10): 36.7 µM (inactive)
GI50 (U-251): 43.7 µM (inactive)
GI50 (UACC-257): 37.7 µM (inactive)
GI50 (UACC-62): 23.2 µM (inactive)
GI50 (UO-31): 28.6 µM (inactive)

Cc1n[nH]c(=O)n1/N=C/c1ccc([N+](=O)[O-])cc1
GI50 (786-0): > 100 µM (inactive)
GI50 (A498): > 100 µM (inactive)
GI50 (A549): > 100 µM (inactive)
GI50 (ACHN): > 100 µM (inactive)
GI50 (BT-549): > 100 µM (inactive)
GI50 (CAKI-1): 30.1 µM (inactive)
GI50 (CCRF-CEM): > 100 µM (inactive)
GI50 (COLO 205): > 100 µM (inactive)
GI50 (DU-145): > 100 µM (inactive)
GI50 (EKVX): 60.7 µM (inactive)
GI50 (HCC 2998): > 100 µM (inactive)
GI50 (HCT-116): > 100 µM (inactive)
GI50 (HCT-15): > 100 µM
GI50 (HL-60): > 100 µM (inactive)
GI50 (HOP-62): > 100 µM (inactive)
GI50 (HOP-92): 55.3 µM (inactive)
GI50 (HT-29): > 100 µM (inactive)
GI50 (Hs-578T): 78 µM (inactive)
GI50 (K562): > 100 µM (inactive)
GI50 (KM12): > 100 µM (inactive)
GI50 (LOX IMVI): > 100 µM (inactive)
GI50 (MCF7): > 100 µM (inactive)
GI50 (MDA-MB-231): > 100 µM (inactive)
GI50 (MDA-MB-435): > 100 µM (inactive)
GI50 (MDA-N): > 100 µM (inactive)
GI50 (MOLT-4): > 100 µM (inactive)
GI50 (Malme-3M): > 100 µM (inactive)
GI50 (NCI-H226): > 100 µM (inactive)
GI50 (NCI-H23): > 100 µM (inactive)
GI50 (NCI-H460): > 100 µM (inactive)
GI50 (NCI-H522): > 100 µM (inactive)
GI50 (NCI/ADR-RES): > 100 µM (inactive)
GI50 (OVCAR-3): > 100 µM (inactive)
GI50 (OVCAR-4): > 100 µM (inactive)
GI50 (OVCAR-5): > 100 µM (inactive)
GI50 (OVCAR-8): > 100 µM (inactive)
GI50 (PC-3): > 100 µM (inactive)
GI50 (RPMI-8226): > 100 µM (inactive)
GI50 (RXF 393): 61.2 µM (inactive)
GI50 (SF-268): 70.6 µM (inactive)
GI50 (SF-295): > 100 µM (inactive)
GI50 (SF-539): > 100 µM (inactive)
GI50 (SK-MEL-28): > 100 µM (inactive)
GI50 (SK-MEL-2): > 100 µM (inactive)
GI50 (SK-MEL-5): > 100 µM (inactive)
GI50 (SN12C): > 100 µM (inactive)
GI50 (SNB-75): 41.1 µM (inactive)
GI50 (SR): > 100 µM (inactive)
GI50 (SW-620): > 100 µM (inactive)
GI50 (T47D): > 100 µM (inactive)
GI50 (TK-10): > 100 µM (inactive)
GI50 (U-251): > 100 µM (inactive)
GI50 (UACC-257): > 100 µM (inactive)
GI50 (UACC-62): > 100 µM (inactive)
GI50 (UO-31): > 100 µM (inactive)

Brc1c(C#CCC(c2ccccc2)(c2ccccc2)c2ccccc2)ccc(C#CCC(c2ccccc2)(c2ccccc2)c2ccccc2)c1Br
GI50 (786-0): > 100 µM (inactive)
GI50 (A498): > 100 µM (inactive)
GI50 (A549): > 100 µM (inactive)
GI50 (ACHN): > 100 µM (inactive)
GI50 (BT-549): > 100 µM (inactive)
GI50 (CAKI-1): > 100 µM (inactive)
GI50 (CCRF-CEM): > 100 µM (inactive)
GI50 (COLO 205): > 100 µM (inactive)
GI50 (DU-145): > 100 µM (inactive)
GI50 (EKVX): > 100 µM (inactive)
GI50 (HCC 2998): > 100 µM (inactive)
GI50 (HCT-116): > 100 µM (inactive)
GI50 (HCT-15): > 100 µM
GI50 (HL-60): > 100 µM (inactive)
GI50 (HOP-92): > 100 µM (inactive)
GI50 (HT-29): > 100 µM (inactive)
GI50 (Hs-578T): > 100 µM (inactive)
GI50 (IGROV-1): > 100 µM (inactive)
GI50 (K562): > 100 µM (inactive)
GI50 (KM12): > 100 µM (inactive)
GI50 (M14): > 100 µM (inactive)
GI50 (MCF7): > 100 µM (inactive)
GI50 (MDA-MB-231): > 100 µM (inactive)
GI50 (MDA-MB-435): > 100 µM (inactive)
GI50 (MDA-N): > 100 µM (inactive)
GI50 (MOLT-4): > 100 µM (inactive)
GI50 (Malme-3M): > 100 µM (inactive)
GI50 (NCI-H226): > 100 µM (inactive)
GI50 (NCI-H23): > 100 µM (inactive)
GI50 (NCI-H460): > 100 µM (inactive)
GI50 (NCI-H522): > 100 µM (inactive)
GI50 (NCI/ADR-RES): > 100 µM (inactive)
GI50 (OVCAR-3): > 100 µM (inactive)
GI50 (OVCAR-4): > 100 µM (inactive)
GI50 (OVCAR-5): > 100 µM (inactive)
GI50 (OVCAR-8): > 100 µM (inactive)
GI50 (PC-3): > 100 µM (inactive)
GI50 (RPMI-8226): > 100 µM (inactive)
GI50 (RXF 393): > 100 µM (inactive)
GI50 (SF-268): > 100 µM (inactive)
GI50 (SF-295): > 100 µM (inactive)
GI50 (SF-539): > 100 µM (inactive)
GI50 (SK-MEL-28): > 100 µM (inactive)
GI50 (SK-MEL-2): > 100 µM (inactive)
GI50 (SK-MEL-5): > 100 µM (inactive)
GI50 (SK-OV-3): > 100 µM (inactive)
GI50 (SN12C): > 100 µM (inactive)
GI50 (SNB-19): > 100 µM (inactive)
GI50 (SNB-75): > 100 µM (inactive)
GI50 (SR): > 100 µM (inactive)
GI50 (SW-620): > 100 µM (inactive)
GI50 (T47D): > 100 µM (inactive)
GI50 (TK-10): > 100 µM (inactive)
GI50 (U-251): > 100 µM (inactive)
GI50 (UACC-257): > 100 µM (inactive)
GI50 (UACC-62): > 100 µM (inactive)
GI50 (UO-31): > 100 µM (inactive)
